In PubChem BioAssay (NCI) one finds GI50 and TGI data, which are given here for 5 molecules.

Test systems include EKVX NSCLC; UO-31 renal; PC-3 prostate; A498 renal; MALME-3M melanoma; 786-0 renal; HT29 colon; SNB-75 CNS; OVCAR-5 ovarian; COLO 205 colon.
Common to all, as to experiment: NCI anticancer screen, dose series, 48 h

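Compound exposure: 48 hours, 5 concentrations, 96-well plates. Abbreviation: GI50, concentration required for 50% inhibition of growth. TGI: total growth inhibition.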

Regarding `O=C1c2cccnc2-c2nc(-c3ccccc3)cc3c2c1nc1ccccc13`, the GI50 in the assay with EKVX NSCLC is 5.1 µM; with UO-31 renal, 3.8 µM; in the assay with PC-3 prostate, 3.42 µM; in the assay on A498 renal, 17.1 µM; with MALME-3M melanoma, 3.38 µM; in the assay on 786-0 renal, 5.88 µM. Further, the GI50 with HT29 colon is 2.59 µM; in the assay with SNB-75 CNS, 10.5 µM; with OVCAR-5 ovarian it was 16.2 µM; in the assay on COLO 205 colon, 6 µM. The TGI was determined as 18.1 µM in the assay on EKVX NSCLC; 11.2 µM with UO-31 renal; 73.2 µM in the assay on PC-3 prostate; 31.2 µM in the assay on A498 renal; 16.1 µM in the assay with MALME-3M melanoma; 20.1 µM in the assay on 786-0 renal. Also, the TGI in the assay on HT29 colon came out at 7.16 µM; with SNB-75 CNS, 23.1 µM; in the assay on OVCAR-5 ovarian it was 30.8 µM; with COLO 205 colon, 19 µM.
For `NCCCNCCCNc1nc2ccccc2c2[nH]c3ccccc3c12`, the GI50 in the assay with EKVX NSCLC was 2.09 µM; with UO-31 renal it was 0.309 µM; with PC-3 prostate, 0.481 µM; with A498 renal it was 0.995 µM; in the assay on MALME-3M melanoma it was 1 µM; in the assay with 786-0 renal, 0.0975 µM. In addition, the GI50 in the assay with HT29 colon is 0.0482 µM; in the assay with SNB-75 CNS, 0.224 µM; in the assay on OVCAR-5 ovarian it was 0.215 µM; in the assay with COLO 205 colon it was 0.182 µM. Further, the TGI in the assay with EKVX NSCLC was found to be 5.8 µM; with UO-31 renal, 3.17 µM; with PC-3 prostate it was 2.14 µM; with A498 renal it was 2.44 µM; in the assay with MALME-3M melanoma it was 2.74 µM; in the assay on 786-0 renal, 1.56 µM. For the same molecule, the TGI with HT29 colon amounted to 1.86 µM; in the assay on SNB-75 CNS, 1.29 µM; in the assay with OVCAR-5 ovarian, 1.61 µM; in the assay on COLO 205 colon, 2.12 µM.
As to `c1ccc(COc2ccc(Nc3ncnc4ccc(-c5ccco5)cc34)cc2)cc1`, the GI50 was 1.81 µM with EKVX NSCLC; 4.76 µM in the assay on UO-31 renal; 8.47 µM in the assay with PC-3 prostate; 5.39 µM in the assay on A498 renal; 6.04 µM with MALME-3M melanoma; 4.91 µM with 786-0 renal. In addition, the GI50 with HT29 colon is 4.52 µM; in the assay on SNB-75 CNS it was 6.82 µM; in the assay on OVCAR-5 ovarian it was 4.57 µM; in the assay on COLO 205 colon, 7.14 µM. The TGI with EKVX NSCLC is above 25 µM; with UO-31 renal, above 22.1 µM; with PC-3 prostate, above 23.5 µM; in the assay on A498 renal, above 21.6 µM; in the assay with MALME-3M melanoma, above 21.1 µM; in the assay on 786-0 renal, 12.9 µM. Further, the TGI in the assay with HT29 colon was 16.1 µM; in the assay with SNB-75 CNS it was above 18.9 µM; with OVCAR-5 ovarian, 14.8 µM; in the assay on COLO 205 colon, 17.7 µM.
Consider `COc1cc2c(cc1OCCCN1CCN(CCCOc3cc4c(cc3OC)C(=O)C3CCC[C@H]3C=N4)CC1)N=C[C@@H]1CCCC1C2=O` (stereo not given in full), for which the GI50 in the assay with EKVX NSCLC was 34.2 µM; in the assay with UO-31 renal, 17.1 µM; in the assay with PC-3 prostate it was 2.99 µM; with A498 renal, 2.17 µM; with MALME-3M melanoma, 2.83 µM; in the assay with 786-0 renal, 3.84 µM. The GI50 was 23.3 µM with HT29 colon, 24.8 µM in the assay on SNB-75 CNS, 4.84 µM in the assay on OVCAR-5 ovarian and 9.29 µM in the assay with COLO 205 colon. Besides, the TGI in the assay on EKVX NSCLC is above 100 µM; with UO-31 renal, above 51.3 µM; with PC-3 prostate it was above 77.1 µM; in the assay with A498 renal it was 7.49 µM; with MALME-3M melanoma, 21.5 µM; with 786-0 renal, above 100 µM. Also, the TGI is above 68.8 µM in the assay with HT29 colon, above 85.4 µM in the assay on SNB-75 CNS, above 27.2 µM with OVCAR-5 ovarian and above 75.4 µM in the assay on COLO 205 colon.
On to `COc1cccc(C2C3=C(COC3=O)N(CCO)c3cc4c(cc32)CCC4)c1` (stereo not given), for which the GI50 in the assay with EKVX NSCLC was 0.133 µM; in the assay on UO-31 renal, 0.0192 µM; with PC-3 prostate it was 0.0577 µM; in the assay with A498 renal, 0.0154 µM; in the assay with MALME-3M melanoma, 0.915 µM; with 786-0 renal, 0.0731 µM. Moreover, the GI50 with HT29 colon was 0.042 µM; in the assay with SNB-75 CNS, 0.0236 µM; in the assay with OVCAR-5 ovarian, 0.344 µM; in the assay with COLO 205 colon, 0.0584 µM. For the same molecule, the TGI in the assay on EKVX NSCLC is above 50 µM; in the assay with UO-31 renal, 1.44 µM; in the assay with PC-3 prostate, above 50 µM; in the assay with A498 renal, 0.0483 µM; with MALME-3M melanoma, above 50 µM; in the assay on 786-0 renal, 10.8 µM. In addition, the TGI in the assay on HT29 colon is 0.156 µM; with SNB-75 CNS it was 0.397 µM; in the assay on OVCAR-5 ovarian it was above 50 µM; in the assay with COLO 205 colon, 0.198 µM.
